Numbers after ± are expanded uncertainties.
Legend:
[1] = for vapor or sublimation pressure: Closed cell (Static) method; for Normal melting temperature: DTA
[2] = Molar enthalpy of transition or fusion; settings: Crystal; DSC

Cn1cnc(C#N)c1C#N [1-methyl-1H-imidazole-4,5-dicarbonitrile]
[1]
Settings | vapor or sublimation pressure [kPa]
337.86 K, Crystal | 0.00034 ± 0.00011
339.38 K, Crystal | 0.00039 ± 0.00011
340.86 K, Crystal | 0.00046 ± 0.00012
342.35 K, Crystal | 0.00053 ± 0.00012
343.84 K, Crystal | 0.00061 ± 0.00012
345.33 K, Crystal | 0.0007 ± 0.00012
346.81 K, Crystal | 0.00082 ± 0.00012
348.31 K, Crystal | 0.00094 ± 0.00012
349.78 K, Crystal | 0.00107 ± 0.00013
351.29 K, Crystal | 0.00124 ± 0.00013
352.76 K, Crystal | 0.00142 ± 0.00013
354.26 K, Crystal | 0.00163 ± 0.00014
355.73 K, Crystal | 0.00186 ± 0.00014
355.76 K, Metastable liquid | 0.00198 ± 0.00014
357.23 K, Crystal | 0.00212 ± 0.00015
357.23 K, Metastable liquid | 0.00221 ± 0.00015
358.72 K, Crystal | 0.00242 ± 0.00015
358.77 K, Metastable liquid | 0.00249 ± 0.00016
360.71 K, Metastable liquid | 0.00284 ± 0.00017
362.59 K, Liquid | 0.0033 ± 0.00018
364.68 K, Liquid | 0.00381 ± 0.00019
366.64 K, Liquid | 0.0044 ± 0.00021
368.64 K, Liquid | 0.00506 ± 0.00023
370.6 K, Liquid | 0.00584 ± 0.00026
372.61 K, Liquid | 0.0067 ± 0.00029
374.56 K, Liquid | 0.00765 ± 0.00033
376.58 K, Liquid | 0.00875 ± 0.00037
378.53 K, Liquid | 0.01 ± 0.00041
380.52 K, Liquid | 0.01138 ± 0.00046
382.49 K, Liquid | 0.01298 ± 0.00052
384.5 K, Liquid | 0.01474 ± 0.00055
386.44 K, Liquid | 0.01668 ± 0.00058
388.45 K, Liquid | 0.01889 ± 0.00061
390.43 K, Liquid | 0.02143 ± 0.00065
392.4 K, Liquid | 0.0241 ± 0.00069
394.36 K, Liquid | 0.02715 ± 0.00074
396.35 K, Liquid | 0.0304 ± 0.00079
398.31 K, Liquid | 0.03419 ± 0.00084
400.31 K, Liquid | 0.03815 ± 0.0009
402.27 K, Liquid | 0.04273 ± 0.00097
404.27 K, Liquid | 0.04766 ± 0.001
406.23 K, Liquid | 0.05325 ± 0.0011

Settings | Normal melting temperature [°C]
[1], Crystal | 87.1 ± 0.3

Settings | Molar enthalpy of transition or fusion [kcal/mol]
[2] | 3.54 ± 0.167

Cn1ccnc1 [1-methylimidazole]
[1]
Settings | vapor or sublimation pressure [kPa]
255.52 K, Crystal | 0.00122 ± 0.0001
256.47 K, Metastable liquid | 0.00184 ± 0.00011
256.5 K, Crystal | 0.00139 ± 0.0001
257.48 K, Crystal | 0.00157 ± 0.00011
257.48 K, Metastable liquid | 0.00204 ± 0.00012
258.55 K, Metastable liquid | 0.00226 ± 0.00013
258.57 K, Crystal | 0.00177 ± 0.00011
259.5 K, Metastable liquid | 0.00249 ± 0.00013
259.53 K, Crystal | 0.00201 ± 0.00012
260.46 K, Metastable liquid | 0.00273 ± 0.00014
260.48 K, Crystal | 0.00225 ± 0.00013
261.42 K, Metastable liquid | 0.00301 ± 0.00015
261.45 K, Crystal | 0.00255 ± 0.00013
262.38 K, Metastable liquid | 0.0033 ± 0.00016
262.41 K, Crystal | 0.00277 ± 0.00014
263.36 K, Metastable liquid | 0.00362 ± 0.00017
263.37 K, Crystal | 0.00317 ± 0.00015
264.36 K, Crystal | 0.00356 ± 0.00017
265.16 K, Metastable liquid | 0.00425 ± 0.00019
265.35 K, Crystal | 0.004 ± 0.00018
267.28 K, Metastable liquid | 0.00515 ± 0.00022
269.27 K, Metastable liquid | 0.00618 ± 0.00026
271.23 K, Liquid | 0.00739 ± 0.0003
273.22 K, Liquid | 0.00866 ± 0.00035
275.16 K, Liquid | 0.01042 ± 0.00042
277.18 K, Liquid | 0.01215 ± 0.00048
281.14 K, Liquid | 0.01675 ± 0.00057
285.09 K, Liquid | 0.02306 ± 0.00067
287.07 K, Liquid | 0.02725 ± 0.00073
289.06 K, Liquid | 0.03146 ± 0.0008
291.04 K, Liquid | 0.03655 ± 0.00088
293.04 K, Liquid | 0.04224 ± 0.00096
295.03 K, Liquid | 0.049 ± 0.0011
297.03 K, Liquid | 0.05608 ± 0.0012
298.98 K, Liquid | 0.06498 ± 0.0013
300.98 K, Liquid | 0.07451 ± 0.0015
302.96 K, Liquid | 0.0852 ± 0.0016
304.98 K, Liquid | 0.09635 ± 0.0018

Settings | Normal melting temperature [°C]
[1], Crystal | -4.5 ± 1.2

Settings | Molar enthalpy of transition or fusion [kcal/mol]
[2] | 2.94 ± 0.335

From the NIST ThermoML archive (doi:10.1016/j.jct.2011.08.017)
